# Target: T1, EEF2K (Homo sapiens, UniProt O00418)
# T1 construct: purchased Thermo Fisher Scientific (Life Technologies) SelectScreen
# Assay: SelectScreen Z'LYTE
# Assay type: biochemical
# Method in brief: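 SelectScreen broad panel; activity (Z'LYTE, Adapta) plus binding formats. ATP: Km app for CSF1R Z'LYTE; 10 for CAMK1 Adapta. Readout = % per kinase.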
structure (smiles),measurement,value
CN(C(=O)CN1CCOCC1)c1ccc2sc3c(-c4cccc5c(=O)cc(N6CC7CCC(C6)O7)oc45)cccc3c2c1 [NU5455],inhibition at 1 µM,-2.4%
